Data published in US6737383B1, “Herbicidal oxadiazolidines” (priority 1999, dated 2004).

How the values were obtained:
velvetleaf = assay: Test B pre/postemergence velvetleaf; assay type: in vivo, Abutilon theophrasti
Method in brief: (§1)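 Test chemicals in a non-phytotoxic solvent mixture with surfactant were sprayed preemergence onto planted seeds and postemergence onto plants 2 to 18 cm tall (1- to 4-leaf stage). After twelve to sixteen days in a greenhouse, injury was visually rated against untreated controls from 0 (no effect) to 10 (complete control).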

purple nutsedge = assay: Test B pre/postemergence purple nutsedge; assay type: in vivo, Cyperus rotundus
Method in brief: as §1

sugar beet = assay: Test B pre/postemergence sugar beet; assay type: in vivo, Beta vulgaris
Method in brief: as §1

smallflower flatsedge = assay: Test B flood test smallflower flatsedge; assay type: in vivo, Cyperus difformis
Method in brief: (§2)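 Each value is a visual injury score relative to controls, with 10 meaning complete control and 0 no effect. Evaluation took place twelve to sixteen days after the 2-leaf-stage plants were treated and kept in the greenhouse.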

wheat = assay: Test B pre/postemergence wheat; assay type: in vivo, Triticum aestivum
Method in brief: as §1

cocklebur = assay: Test B pre/postemergence cocklebur; assay type: in vivo, Xanthium strumarium
Method in brief: as §1

rice = assay: Test B flood test rice; assay type: in vivo, Oryza sativa
Method in brief: as §2

blackgrass = assay: Test B pre/postemergence blackgrass; assay type: in vivo, Alopecurus myosuroides
Method in brief: as §1

corn = assay: Test B pre/postemergence corn; assay type: in vivo, Zea mays
Method in brief: as §1

bamyardgrass = assay: Test B flood test barnyardgrass; assay type: in vivo, Echinochloa crus-galli
Method in brief: as §2

bedstraw = assay: Test B pre/postemergence bedstraw; assay type: in vivo, Galium aparine
Method in brief: as §1

wild oat = assay: Test B pre/postemergence wild oat; assay type: in vivo, Avena fatua
Method in brief: as §1

surinam grass = assay: Test B pre/postemergence surinam grass; assay type: in vivo, Brachiaria decumbens
Method in brief: as §1

crabgrass = assay: Test B pre/postemergence crabgrass; assay type: in vivo, Digitaria sanguinalis
Method in brief: as §1

duck salad = assay: Test B flood test duck salad; assay type: in vivo, Heteranthera limosa
Method in brief: as §2

soybean = assay: Test B pre/postemergence soybean; assay type: in vivo, Glycine max
Method in brief: as §1

[1] = Postemergence, Rate 62 g/ha, scale 0 to 10, 0 is no effect, 10 is complete control
[2] = Postemergence, Rate 250 g/ha, scale 0 to 10, 0 no effect, 10 complete control
[3] = Preemergence, Rate 62 g/ha, scale 0 to 10 (0 no effect, 10 complete control)
[4] = Preemergence, Rate 125 g/ha, scale 0 to 10 (0 no effect, 10 complete control)
[5] = Preemergence, Rate 250 g/ha, scale of 0 to 10 where 0 is no effect and 10 is complete control
[6] = Preemergence, Rate 500 g/ha, scale 0 (no effect) to 10 (complete control)
[7] = Rate 125 g/ha, Postemergence, scale 0 to 10, 0 no effect, 10 complete control
[8] = Rate 500 g/ha, Postemergence, scale 0 to 10, 0 no effect, 10 complete control
[9] = Rate 62 g/ha, headed Pre-emergence (flood test species), scale 0 to 10 (0 no effect, 10 complete control)
[10] = Rate 125 g/ha, Pre-emergence, flood test species, scale 0 to 10 where 0 is no effect and 10 is complete control
[11] = Rate 250 g/ha, headed Pre-emergence (flood test species), scale 0 to 10 (0 no effect, 10 complete control)
[12] = Rate 500 g/ha, headed Pre-emergence (flood test species), scale 0 to 10 (0 no effect, 10 complete control)

CCN(Cc1ccccc1)C(=O)n1oc(=O)n(-c2ccccc2C)c1=O [Compound 71]
0: Velvetleaf plant response rating (velvetleaf; [1]) | Velvetleaf plant response rating (velvetleaf; [2]) | Velvetleaf plant response rating (velvetleaf; [3]) | Plant response rating, Velvetleaf (velvetleaf; [4]) | Plant response rating, Velvetleaf (velvetleaf; [5]) | Velvetleaf plant response rating (velvetleaf; [6]) | Velvetleaf plant response rating (velvetleaf; [7]) | Velvetleaf plant response rating (velvetleaf; [8]) | Nutsedge plant response rating (purple nutsedge; [1]) | Nutsedge plant response rating (purple nutsedge; [2]) | Nutsedge plant response rating (purple nutsedge; [3]) | Plant response rating, Nutsedge (purple nutsedge; [4]) | Plant response rating, Nutsedge (purple nutsedge; [5]) | Nutsedge plant response rating (purple nutsedge; [6]) | Nutsedge plant response rating (purple nutsedge; [7]) | Nutsedge plant response rating (purple nutsedge; [8]) | Sugarbeets plant response rating (sugar beet; [1]) | Sugarbeets plant response rating (sugar beet; [2]) | Sugarbeets plant response rating (sugar beet; [3]) | Plant response rating, Sugarbeets (sugar beet; [4]) | Plant response rating, Sugarbeets (sugar beet; [5]) | Sugarbeets plant response rating (sugar beet; [6]) | Sugarbeets plant response rating (sugar beet; [7]) | Sugarbeets plant response rating (sugar beet; [8]) | S. Flatsedge plant response rating (smallflower flatsedge; [9]) | S. Flatsedge plant response rating (smallflower flatsedge; [10]) | S. Flatsedge plant response rating (smallflower flatsedge; [11]) | Plant response rating, S. Flatsedge (smallflower flatsedge; [12]) | Wheat plant response rating (wheat; [1]) | Wheat plant response rating (wheat; [2]) | Wheat plant response rating (wheat; [3]) | Plant response rating, Wheat (wheat; [4]) | Plant response rating, Wheat (wheat; [5]) | Wheat plant response rating (wheat; [6]) | Wheat plant response rating (wheat; [7]) | Wheat plant response rating (wheat; [8]) | Cocklebur plant response rating (cocklebur; [1]) | Cocklebur plant response rating (cocklebur; [2]) | Cocklebur plant response rating (cocklebur; [3]) | Plant response rating, Cocklebur (cocklebur; [4]) | Plant response rating, Cocklebur (cocklebur; [5]) | Cocklebur plant response rating (cocklebur; [6]) | Cocklebur plant response rating (cocklebur; [7]) | Cocklebur plant response rating (cocklebur; [8]) | Rice plant response rating (rice; [9]) | Rice plant response rating (rice; [10]) | Rice plant response rating (rice; [11]) | Plant response rating, Rice (rice; [12]) | Blackgrass plant response rating (blackgrass; [1]) | Blackgrass plant response rating (blackgrass; [2]) | Blackgrass plant response rating (blackgrass; [3]) | Plant response rating, Blackgrass (blackgrass; [4]) | Plant response rating, Blackgrass (blackgrass; [5]) | Blackgrass plant response rating (blackgrass; [6]) | Blackgrass plant response rating (blackgrass; [7]) | Blackgrass plant response rating (blackgrass; [8]) | Corn plant response rating (corn; [1]) | Corn plant response rating (corn; [2]) | Corn plant response rating (corn; [3]) | Plant response rating, Corn (corn; [4]) | Plant response rating, Corn (corn; [5]) | Corn plant response rating (corn; [6]) | Corn plant response rating (corn; [7]) | Corn plant response rating (corn; [8]) | Barnyardgrass plant response rating (bamyardgrass; [9]) | Barnyardgrass plant response rating (bamyardgrass; [10]) | Barnyardgrass plant response rating (bamyardgrass; [11]) | Plant response rating, Barnyardgrass (bamyardgrass; [12]) | Bedstraw plant response rating (bedstraw; [1]) | Bedstraw plant response rating (bedstraw; [2]) | Bedstraw plant response rating (bedstraw; [3]) | Plant response rating, Bedstraw (bedstraw; [4]) | Plant response rating, Bedstraw (bedstraw; [5]) | Bedstraw plant response rating (bedstraw; [6]) | Bedstraw plant response rating (bedstraw; [7]) | Bedstraw plant response rating (bedstraw; [8]) | Wild oats plant response rating (wild oat; [1]) | Wild oats plant response rating (wild oat; [2]) | Wild oats plant response rating (wild oat; [3]) | Plant response rating, Wild oats (wild oat; [4]) | Plant response rating, Wild oats (wild oat; [5]) | Wild oats plant response rating (wild oat; [6]) | Wild oats plant response rating (wild oat; [7]) | Wild oats plant response rating (wild oat; [8]) | B. signalgrass plant response rating (surinam grass; [1]) | B. signalgrass plant response rating (surinam grass; [2]) | B. signalgrass plant response rating (surinam grass; [3]) | Plant response rating, B. signalgrass (surinam grass; [4]) | Plant response rating, B. signalgrass (surinam grass; [5]) | B. signalgrass plant response rating (surinam grass; [6]) | B. signalgrass plant response rating (surinam grass; [7]) | B. signalgrass plant response rating (surinam grass; Rate 500 g/ha, Postemergence, scale of 0 to 10 where 0 is no effect and 10 is complete control) | Crabgrass plant response rating (crabgrass; [1]) | Crabgrass plant response rating (crabgrass; [2]) | Crabgrass plant response rating (crabgrass; [3]) | Plant response rating, Crabgrass (crabgrass; [4]) | Plant response rating, Crabgrass (crabgrass; [5]) | Crabgrass plant response rating (crabgrass; [6]) | Crabgrass plant response rating (crabgrass; [7]) | Crabgrass plant response rating (crabgrass; [8]) | Ducksalad plant response rating (duck salad; [9]) | Ducksalad plant response rating (duck salad; [10]) | Ducksalad plant response rating (duck salad; [11]) | Plant response rating, Ducksalad (duck salad; [12]) | Soybean plant response rating (soybean; [1]) | Soybean plant response rating (soybean; [2]) | Soybean plant response rating (soybean; [3]) | Plant response rating, Soybean (soybean; [4]) | Plant response rating, Soybean (soybean; [5]) | Soybean plant response rating (soybean; [6]) | Soybean plant response rating (soybean; [7]) | Soybean plant response rating (soybean; [8])
